Experimental findings from the OligoGym collection are described below.

Where “and” joins values, the source holds several entries; their conditions need not be identical. Identical values can stand only once. After the bases stand the sugars from the 5' end (letter, count) and the backbone: PS all phosphorothioate, else s phosphorothioate and o phosphodiester by linkage. Methylation of C is not given here. e = 2'-O-(2-methoxyethyl) (MOE); k = constrained ethyl (cEt); d = 2'-deoxy (DNA)

One series deals with IRF4. To be noted: ASO, MM.1R, 0.0625 µM.
In the case of GCCTGAGTTACCGCAT (sugars k3 d10 k3, PS), the target mRNA inhibition is -1%.
Turning to GTATTTATAACCGGTA (sugars k3 d10 k3, PS), the target mRNA inhibition was -7% and 4% and -9%.

The series is the same for the next values; noted with them: ASO, MM.1R, 0.074 µM.
GCCTGAGTTACCGCAT (sugars k3 d10 k3, PS): the target mRNA inhibition is -3%.
On to GTATTTATAACCGGTA (sugars k3 d10 k3, PS), for which the target mRNA inhibition was -19%.

Still in this series, the particulars now being: ASO, MM.1R, 0.222 µM.
On to GCCTGAGTTACCGCAT (sugars k3 d10 k3, PS), for which the target mRNA inhibition was -5%.
Regarding GTATTTATAACCGGTA (sugars k3 d10 k3, PS), the target mRNA inhibition turned out to be 4%.

Still in this series, the particulars now being: ASO, MM.1R, 0.25 µM.
As to GCCTGAGTTACCGCAT (sugars k3 d10 k3, PS), the target mRNA inhibition was determined as 0%.
Turning to GTATTTATAACCGGTA (sugars k3 d10 k3, PS), the target mRNA inhibition was 8% and 9% and 21%.

The series is the same for the next values; noted with them: ASO, MM.1R, 0.666 µM.
On to GCCTGAGTTACCGCAT (sugars k3 d10 k3, PS), for which the target mRNA inhibition was -9%.
For GTATTTATAACCGGTA (sugars k3 d10 k3, PS), the target mRNA inhibition is 7%.

The series is the same for the next values; noted with them: ASO, MM.1R, 1 µM.
For “CCTCAGTTTGTGAAGC (sugars kkddddddddddkeke, PS)”, the target mRNA inhibition turned out to be 16%.
Consider AATGTGTATTACTCTT (sugars k3 d10 k3, PS), for which the target mRNA inhibition was 53% and 41%.
For the sequence CTCCTATGCTGAACCC (sugars k3 d10 k3, PS), the target mRNA inhibition was determined as 9%.
Same read-out and setting: next, CGAGGTTGCCGAGATA (sugars k3 d10 k3, PS): 66% and 60%; AAAAGGTTCCTGTCAC (sugars k3 d10 k3, PS): -5%.
GCCTGAGTTACCGCAT (sugars k3 d10 k3, PS): the target mRNA inhibition turned out to be 13%.
For the sequence GTACGAGCACATGTCA (sugars k3 d10 k3, PS), the target mRNA inhibition is 0%.
As to “ATTATATACTGGTTGG (sugars kkdddddddddekeke, PS)”, the target mRNA inhibition is 43%.
Turning to “GTGTGCTTGCCAAGCC (sugars kdddddddddkekeke, PS)”, the target mRNA inhibition is 6% and 22%.
As to TTACTCCGCTGAGTGG (sugars k3 d10 k3, PS), the target mRNA inhibition is -4%.
Same read-out and setting: next, “TACTGCTTGAGGTTTT (sugars k3 d9 k3 e1, PS)”: 13%; “GGAAGTTTACACTGGA (sugars kkkddddddddkekek, PS)”: 43%; CGCACTCCGGGCACCC (sugars k3 d10 k3, PS): 11%.
With ATCCGAAAAGACTGGA (sugars k3 d10 k3, PS), the target mRNA inhibition was -20%.
Regarding ACCACAAGCAGTGATG (sugars k3 d10 k3, PS), the target mRNA inhibition came out at 1%.
For “TGTAGTATGAGAAACG (sugars kkdddddddddekeke, PS)”, the target mRNA inhibition is 13%.
On to GCACAGCCCTTGGTTA (sugars k3 d10 k3, PS), for which the target mRNA inhibition amounted to 3%.
In the case of “TTGGTTGGCTGGTCTT (sugars kdddddddddkekeke, PS)”, the target mRNA inhibition is -7%.
Still for that read-out and setting: the result for CCAGAAGTACGAGCAC (sugars k3 d10 k3, PS) reads -3%.
For the sequence ACATTGGTACGGGATT (sugars k3 d10 k3, PS), the target mRNA inhibition is 2%.
The same measure, in the same setting: next, CCACGAAGGGCAGTGC (sugars k3 d10 k3, PS): 0%.
As for CCTTAGGAACGAAGAG (sugars k3 d10 k3, PS), the target mRNA inhibition is -6%.
Consider GCAGGGACCGCGCCAG (sugars k3 d10 k3, PS), for which the target mRNA inhibition was found to be 10%.
As for GTATTTATAACCGGTA (sugars k3 d10 k3, PS), the target mRNA inhibition was 34% and 36% and 37%.
In the case of “CCTCAGTTTGTGAAGC (sugars k2 d9 e3 k2, PS)”, the target mRNA inhibition turned out to be 33%.
Turning to GCACGGAGAGGGCGAG (sugars k3 d10 k3, PS), the target mRNA inhibition turned out to be 4%.
Turning to GCGCGGAGGGCAGGCG (sugars k3 d10 k3, PS), the target mRNA inhibition was -32%.
On the same count and under the same terms, the result for “CCTCAGTTTGTGAAGC (sugars kkkdddddddddkeke, PS)” reads 8%.
Still for that read-out and setting: next, “AGCAGTGATGTCAGGT (sugars kdddddddddkekeke, PS)”: 26% and 36%.

The series is the same for the next values; noted with them: ASO, MM.1R, 2 µM.
For the sequence GCCTGAGTTACCGCAT (sugars k3 d10 k3, PS), the target mRNA inhibition is 5%.
For the sequence GTATTTATAACCGGTA (sugars k3 d10 k3, PS), the target mRNA inhibition amounted to 33%.

The same series, now with this note: ASO, MM.1R, 4 µM.
With GCCTGAGTTACCGCAT (sugars k3 d10 k3, PS), the target mRNA inhibition turned out to be 41%.
GTATTTATAACCGGTA (sugars k3 d10 k3, PS): the target mRNA inhibition was 77% and 74% and 75%.

Still in this series, the particulars now being: ASO, SK-MEL-28, 4 µM.
As for GAACGGAAGTTTACAC (sugars k3 d10 k3, PS), the target mRNA inhibition came to 67%.
As for AATCACTGGAGAGAAC (sugars k3 d10 k3, PS), the target mRNA inhibition worked out at 29%.
Same read-out and setting: the result for CGTCTTCCAGGTGGGA (sugars k3 d10 k3, PS) reads 16%; that for GCCTGAGTTACCGCAT (sugars k3 d10 k3, PS), 70%; that for TCTCACGCAGTGCACC (sugars k3 d10 k3, PS), 44%.
Same read-out and setting: next, TCCATTGGAGGAGGGT (sugars k3 d10 k3, PS): 33%; TGCATAGTGATGAGAT (sugars k3 d10 k3, PS): 37%; CCCTTCCCGCTCCGAA (sugars k3 d10 k3, PS): 16%.
Turning to CAAGTGTCTTCCACAA (sugars k3 d10 k3, PS), the target mRNA inhibition is 65%.
As for TTATACTGTCTGGTTA (sugars k3 d10 k3, PS), the target mRNA inhibition was 44%.
Same read-out and setting: the result for GCCTGGGAGTCCCCGG (sugars k3 d10 k3, PS) reads 18%; that for AGCAGAACGAGGTAAA (sugars k3 d10 k3, PS), 70%; that for TGCTAGATTCTCCCTG (sugars k3 d10 k3, PS), 33%.
With GAAGCACTGGCATCGA (sugars k3 d10 k3, PS), the target mRNA inhibition amounted to 44%.
As to TCCTAACCCTACCCTT (sugars k3 d10 k3, PS), the target mRNA inhibition came out at 30%.
As to TTGTCATGGTGTAGGG (sugars k3 d10 k3, PS), the target mRNA inhibition was 41%.
On the same count and under the same terms, the result for TCAAGAGGAACTAGTC (sugars k3 d10 k3, PS) reads 24%; that for TTGAATAGAGGAATGG (sugars k3 d10 k3, PS), 42%.
In the case of AGCGAGTCAGACAGTG (sugars k3 d10 k3, PS), the target mRNA inhibition turned out to be 16%.
Still for that read-out and setting: the result for CAATCATGATATTAGA (sugars k3 d10 k3, PS) reads 38%.
For the sequence CCACAGAGGACTTCGG (sugars k3 d10 k3, PS), the target mRNA inhibition came to 27%.
Same read-out and setting: the result for GAGCACCGCGCCGGAG (sugars k3 d10 k3, PS) reads 7%; that for GAGTCACCTGGAATCT (sugars k4 d8 k4, PS), 6%.
On the same count and under the same terms, the result for GCTCAGCATGCAAGCC (sugars k3 d10 k3, PS) reads 0%; that for AACAATCCTGTACACT (sugars k3 d10 k3, PS), 22%.
For AGGAAGTTTACTAACT (sugars k3 d10 k3, PS), the target mRNA inhibition turned out to be 58%.
Still for that read-out and setting: next, ACGCACGGAGAGGGCG (sugars k3 d10 k3, PS): 1%; AGTCTAGCTGGGTTTT (sugars k3 d10 k3, PS): 63%; CGCTCATGCCGAACTC (sugars k3 d10 k3, PS): 11%.
With CGCCGGACCCCGGAGC (sugars k3 d10 k3, PS), the target mRNA inhibition was determined as 9%.
For the sequence AGCTACAAAGAGCACT (sugars k3 d10 k3, PS), the target mRNA inhibition was found to be 33%.
On to AGCCTTCACGCACCAT (sugars k3 d10 k3, PS), for which the target mRNA inhibition came out at 30%.
The same measure, in the same setting: next, CAGAAGGGCAACAGTT (sugars k3 d10 k3, PS): 38%; TCCGCTTGGAGAATTA (sugars k3 d10 k3, PS): 13%.
For the sequence GAGGAATGAGCACTCT (sugars k3 d10 k3, PS), the target mRNA inhibition is 26%.
On the same count and under the same terms, next, GTAGACCACAGTGAAG (sugars k3 d10 k3, PS): 29%.
CAGCAAAGAGGGTCAC (sugars k3 d10 k3, PS): the target mRNA inhibition was determined as 61%.
With CAAGAACTGCAGCTCC (sugars k3 d10 k3, PS), the target mRNA inhibition turned out to be 47%.
On the same count and under the same terms, the result for CTGGATTGATGTGATA (sugars k3 d10 k3, PS) reads 43%; that for AGTTAAGTACTTGGAC (sugars k3 d10 k3, PS), 42%.
As to GTTCACGAAACACAGT (sugars k3 d10 k3, PS), the target mRNA inhibition is 63%.
The same measure, in the same setting: the result for GGGCCCCGTGAAACAG (sugars k3 d10 k3, PS) reads 33%; that for ATGAGGAAGCCGTTCC (sugars k3 d10 k3, PS), 58%.
As to CCCAATAGTCTAGCTG (sugars k3 d10 k3, PS), the target mRNA inhibition turned out to be 56%.
Consider CTGACTTTAATATTAG (sugars k3 d10 k3, PS), for which the target mRNA inhibition stood at 56%.
GTAATCTTCTGGATTG (sugars k3 d10 k3, PS): the target mRNA inhibition amounted to 29%.
On to TGTCAAACTATAATTG (sugars k3 d10 k3, PS), for which the target mRNA inhibition stood at 15%.
The same measure, in the same setting: next, CTCAATAATCTCCCAG (sugars k3 d10 k3, PS): 53%; GTATTTATAACCGGTA (sugars k3 d10 k3, PS): 67%.
For GCGCAAGTCTACAGCC (sugars k3 d10 k3, PS), the target mRNA inhibition is -20%.
On to CTGACAAGAACTGCTG (sugars k3 d10 k3, PS), for which the target mRNA inhibition is 21%.
As for CGAAACACAGTCTGCT (sugars k3 d10 k3, PS), the target mRNA inhibition came to 53%.
Consider GTTCTAGGGTCCTCCT (sugars k3 d10 k3, PS), for which the target mRNA inhibition was determined as 50%.
Take CAAAGCAAGTGTCTAA (sugars k3 d10 k3, PS): the target mRNA inhibition turned out to be 23%.
Turning to CGAGATATAAATAGCT (sugars k3 d10 k3, PS), the target mRNA inhibition is 53% and 58%.
As for ACTAGATTGTAGGACA (sugars k3 d10 k3, PS), the target mRNA inhibition is -9%.
For the sequence GGAAATACGACAACTT (sugars k3 d10 k3, PS), the target mRNA inhibition came out at 63%.
For CTAAAACTGCGCTCTC (sugars k3 d10 k3, PS), the target mRNA inhibition is 24%.
As to CGCAATTCTCCTCAAC (sugars k3 d10 k3, PS), the target mRNA inhibition came to 38%.
With GACCTAATCTACAACA (sugars k3 d10 k3, PS), the target mRNA inhibition was 33%.
With TTATTAAGTCAATCAC (sugars k3 d10 k3, PS), the target mRNA inhibition was -1%.
Turning to AACCGCTGGCAGGTGG (sugars k3 d10 k3, PS), the target mRNA inhibition turned out to be 40%.
